Assay results taken from patent publication US20210047380A1, “A NEUROTROPHIC PEPTIDE FOR THE THERAPEUTIC TREATMENT OF NEURODEGENERATIVE AND/OR INFLAMMATORY DISEASES” (CONSIGLIO NAZIONALE DELLE RICERCHE, priority 2018, published 2021).

How the values were obtained:
PC12 cells [1] = assay: Viability test on PC12 cells in suspension after serum deprivation; assay type: cell-based, rat; settings: 48 hours of culture, 50 ng/ml mNGF or 100 ng/ml hproNGF-A or hproNGF-B
Description: FIG. 3B is a histogram showing the results from the viability test performed on PC12 cells in suspension after addition of the factors listed under A above.
PC12 cells were cultured in RPMI 1640 culture medium supplemented with 10% horse serum and 5% calf serum in a humidified atmosphere with 5% CO2 at 37° C. The exponentially growing cells were then seeded on 6-well plates containing poly-L-Lysine, to allow adherence of the cells to the bottom of the well.

[2] = system: hippocampal cells of the dentate gyrus (granule layer and hilus); assay: Hoechst-positive cell count in hippocampal dentate gyrus after intranasal administration; assay type: in vivo, rat; settings: control (healthy) rats, intranasal once a day for four days
Description: The broken lines show regions of the Dentate Gyrus (DG-H and DG-Granule Layer) where cell counts were performed, shown in the graphs in FIG. 4B.
To check whether the opposite nature of the two different hproNGF isoforms could affect the number of hippocampal cells and whether the intranasal administration of proNGF could have an effect on diabetes-induced neuronal loss, Hoechst-positive cells were analysed by confocal microscopy in both the cell layers of the hippocampal dentate gyrus, the granule layer (GL) and the hilus (HL) (as shown in FIG. 4A). The rats were deeply anesthetized and transcardially perfused with 0.1 M phosphate buffer followed by 4% paraformaldehyde fixative in 0.1 M phosphate buffer. The brains were removed and cryoprotected with 30% sucrose in phosphate buffer. 40 μm-thick coronal sections of both hemispheres. ranging −2.40 /−3.72 mm from the bregma according to the Paxinos Rat Brain Atlas, were cut on a cryostat and then processed. The brain sections were pre-incubated for 2 hours at room temperature (RT) with PBS containing 10% donkey serum (v/v), 1% BSA (w/v) and 0.3% Triton X-100 (v/v). After washing with PBS, the sections were incubated (2 h, RT) with specific secondary antibodies. Subsequently, the sections were rinsed three times in PBS and incubated for 10 minutes with Hoechst dye for specific staining of the nuclei. […]

PC12 cells [3] = assay: PC12 cell neuronal differentiation test; assay type: cell-based, rat; settings: serum-free medium, 50 ng/ml mNGF or 100 ng/ml hproNGF-A or hproNGF-B, five-day incubation
[4] = system: hippocampal dentate gyrus neurogenesis; assay: Hippocampal neurogenesis (BrdU, DCX, NeuN confocal microscopy) after intranasal administration; assay type: in vivo, rat
Excerpt: The box-plot graphs enclosed by a broken line show the results from the quantitative analyses in healthy rats (A) and diabetic rats (B) of cells that have incorporated BrdU and are at the same time positive for Doublecortin (DCX) (graphs enclosed by a dashed line box) or NeuN (graphs enclosed by a dotted line box). Median±interquartile, n=4 animals per experimental group.
It is also known that diabetic encephalopathy impairs the hippocampal neurogenesis process. In order to assess the effects induced by exogenous administration of the two hproNGF peptide isoforms on hippocampal neurogenesis, the hproNGF-A peptide for use according to the invention and the known hproNGF-B peptide were administered to healthy and diabetic rats.
In order to assess the effects of the treatments on dentate gyrus neurogenesis, at the time of diabetes induction, rats were inoculated with bromodeoxyuridine (BrdU), which intercalates into newly formed DNA, specifically labelling cells proliferating at the time of inoculation. Subsequently, a confocal microscopy analysis was performed by labelling with anti-BrdU antibodies and specific antibodies to detect the presence of immature neurons (antibodies to doublecortin, DCX) or mature neurons (antibodies to NeuN).

[5] = system: hippocampal synaptic plasticity (DG-LTP); assay: Long-term potentiation (LTP) in dentate gyrus of hippocampal slices after intranasal administration; settings: intranasal once a day for four days, 60 minutes after HFS
[6] = system: noradrenergic fibres in the locus coeruleus; assay: Tyrosine hydroxylase immunolocalization in locus coeruleus after intranasal administration (central regulation of sympathetic activity); assay type: in vivo, rat; settings: adult rats
Description: (§1) (A) Representative photomicrograph of the results from the Western blot analysis performed on conditioned culture media of rat PC12 cells stimulated with hproNGF-A (upper panel) or mNGF (lower panel) for 24 hours. The samples examined were collected at time 0 and 4, 8 and 24 hours post-stimulation. (B) Representative photomicrographs of the immunolocalization of the tyrosine hydroxylase enzyme on brain tissue (locus coeruleus) sections taken from rats after intranasal administration of proNGFA or mNGF.
The present inventors also carried out experiments aimed at testing the effects of the action of NGF and the proNGF-A peptide on the central regulation of the neuronal sympathetic activity. In short, the NGF or proNGF-A peptides were administered intranasally to the brain parenchyma of adult rats. Subsequently, the noradrenergic neurons located in the locus coeruleus, a brain region responsible for the central control of the functionality of the sympathetic nervous system, were analysed by immunolabelling on thin slices for tyrosine hydroxylase enzyme. Tyrosine hydroxylase enzyme represents an indirect measurement of the production of the noradrenaline neurotransmitter in neurons of certain brain areas. […]

extracellular proteases = assay: Permanence in conditioned culture medium of stimulated PC12 cells (Western blot), resistance to extracellular proteases; assay type: in vitro ADME; settings: conditioned medium of rat PC12 cells, sampled at 0, 4, 8 and 24 hours post-stimulation
Description: as §1
In order to assess the resistance of hproNGF-A and mature NGF to the action of extracellular proteases, rat pheochromocytoma cells (PC12) were stimulated with either of the two peptides. Samples collected from conditioned cell culture media at successive times (time zero; 4, 8 and 24 hours post-stimulation) were subjected to Western blot assay in order to verify the permanence of hproNGF-A and mNGF in the culture medium.

Substance | percentage of living cells (PC12 cells [1]) | number of cells in hilus and granule layer of dentate gyrus compared to saline-treated rats [2] | neuronal differentiation of PC12 cells (neurites) (PC12 cells [3]) | diabetes-induced alteration in the number of BrdU+-cells ([4]; diabetic rats) | percentage of BrdU+-cells expressing DCX ([4]; diabetic rats) | number of BrdU-immunopositive cells ([4]; healthy rats) | percentage of cells simultaneously immunopositive for BrdU and DCX ([4]; healthy rats) | extent of DG-LTP compared to saline-treated group ([5]; control groups (healthy animals)) [%] | DG-LTP compared to saline-treated diabetic rats (improvement of streptozotocin-induced decrease) ([5]; diabetic rats (streptozotocin)) | arborization (sprouting) of noradrenergic fibres containing tyrosine hydroxylase in the locus coeruleus [6] | time the peptide remains in the culture medium after the stimulus (extracellular proteases)
hproNGF-B: already known human proNGF variant (accession number NM_002506.2), precursor of mature NGF, 221 amino acids long | induces a decrease in the percentage of living cells | decreased significantly | showed evident signs of suffering | no influence | no influence | significant reduction | significant reduction | 28 | not different from that measured in saline-treated diabetic rats | – | –
mNGF: mature Nerve Growth Factor (NGF) peptide, neurotrophin used as comparator | maintain a significant proportion of living cells | – | exhibited the characteristic extensions (neurites) | – | – | – | – | – | – | causes arborization (sprouting) of the noradrenergic fibres | not more than 8 hours
